For 19 compounds, IC50 results are on record in patent publication EP4745131A1, “PYRIMIDINAMINE NUAK INHIBITOR AS WELL AS PREPARATION METHOD THEREFOR AND USE THEREOF” (Technoderma Medicines Inc., priority 2023, dated 2025).

One assay addresses T1, NUAK1 (Homo sapiens, UniProt O60285).
T1 sequence (O60285 1-661): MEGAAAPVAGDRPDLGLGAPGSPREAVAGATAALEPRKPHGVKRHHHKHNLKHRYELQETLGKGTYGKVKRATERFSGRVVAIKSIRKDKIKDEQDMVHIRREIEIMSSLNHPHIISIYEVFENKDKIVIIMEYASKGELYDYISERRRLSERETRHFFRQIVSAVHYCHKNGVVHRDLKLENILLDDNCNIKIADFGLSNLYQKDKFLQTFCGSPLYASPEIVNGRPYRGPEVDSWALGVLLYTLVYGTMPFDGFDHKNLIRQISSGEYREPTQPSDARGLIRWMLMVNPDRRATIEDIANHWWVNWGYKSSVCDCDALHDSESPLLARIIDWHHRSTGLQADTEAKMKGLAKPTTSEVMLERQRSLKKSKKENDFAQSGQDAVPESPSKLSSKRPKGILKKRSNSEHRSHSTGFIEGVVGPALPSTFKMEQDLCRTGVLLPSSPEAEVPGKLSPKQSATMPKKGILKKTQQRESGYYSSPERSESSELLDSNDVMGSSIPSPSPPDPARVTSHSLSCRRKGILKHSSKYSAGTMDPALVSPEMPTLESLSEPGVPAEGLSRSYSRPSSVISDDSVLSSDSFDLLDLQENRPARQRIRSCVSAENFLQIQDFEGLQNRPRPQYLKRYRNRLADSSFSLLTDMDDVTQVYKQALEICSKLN
Briefly: Kinase activity assay, P81 filter paper binding hot-spot technique (33P-ATP, CHKtide substrate). It counts as biochemical. To be noted: final concentration of NUAK1 10 nM; 20 µM CHKtide substrate; 33P-labeled ATP; 2 hours at room temperature; read-out: IC50 (nM) of Test Compounds against NUAK1. On the procedure:
(§1) The inhibitory activity of the pyrimidinamine small molecules involved in the present application against NUAK1 and NUAK2 kinases was determined using a kinase activity assay based on the P81 filter paper binding hot-spot technique (Nat Biotechnol. 2011, 29:1039). A brief description is as follows:
(§2) The assay buffer system contained 20 mM Hepes (pH 7.5), 10 mM MgCl2, 1 mM EGTA, 0.01% Brij35 (L23 polyoxyethylene lauryl ether), 0.02 mg/mL BSA (bovine serum albumin), 0.1 mM Na3VO4, 2 mM DTT, and 1% DMSO.
(§3) • 1. A 20 µM substrate solution was prepared with freshly prepared test buffer and CHKtide peptide fragments (Sanchez Y. Science. 1997, 277: 1497-1501) were used as a substrate. • 2. Kinases were added and mixed gently (a final concentration of NUAK1 was 10 nM; and a final concentration of NUAK2 was 50 nM). • 3. Test compounds dissolved in 100% DMSO were each added to the above kinase reaction mixture solution via Acoustic Droplet Ejection (Echo550; nanoliter) and the mixture was incubated for 5 minutes at room temperature. • 4. ^33P-labeled ATP (a ratio of unlabeled ATP to labeled ATP was 25:1 or 2.5:1) was added. • 5. The mixture was incubated for 2 hours at room temperature. • 6. Kinase activity was tested using the P81 filter paper combined with hotspot technology.
(§4) The IC50 values of the test compounds against NUAK1/NUAK2 were calculated according to the above test. For specific results, see Table 1.
(§5) The IC50 values were calculated by using a formula derived from sigmoidal dose-response curve (variable slope): Y = Bottom + (Top-Bottom)/(1+10^((LogEC50-X)*Slope, where X is the logarithm of compound concentration, Y is the response (inhibition rate of kinase activity), and Y rises from bottom to top along the sigmoidal curve as the concentration increases. Table 1: IC50 (nM) of Test Compounds of the Present Application against NUAK1/NUAK2

The next assay addresses T2, NUAK2 (Homo sapiens, UniProt Q9H093).
T2 sequence (Q9H093 1-628): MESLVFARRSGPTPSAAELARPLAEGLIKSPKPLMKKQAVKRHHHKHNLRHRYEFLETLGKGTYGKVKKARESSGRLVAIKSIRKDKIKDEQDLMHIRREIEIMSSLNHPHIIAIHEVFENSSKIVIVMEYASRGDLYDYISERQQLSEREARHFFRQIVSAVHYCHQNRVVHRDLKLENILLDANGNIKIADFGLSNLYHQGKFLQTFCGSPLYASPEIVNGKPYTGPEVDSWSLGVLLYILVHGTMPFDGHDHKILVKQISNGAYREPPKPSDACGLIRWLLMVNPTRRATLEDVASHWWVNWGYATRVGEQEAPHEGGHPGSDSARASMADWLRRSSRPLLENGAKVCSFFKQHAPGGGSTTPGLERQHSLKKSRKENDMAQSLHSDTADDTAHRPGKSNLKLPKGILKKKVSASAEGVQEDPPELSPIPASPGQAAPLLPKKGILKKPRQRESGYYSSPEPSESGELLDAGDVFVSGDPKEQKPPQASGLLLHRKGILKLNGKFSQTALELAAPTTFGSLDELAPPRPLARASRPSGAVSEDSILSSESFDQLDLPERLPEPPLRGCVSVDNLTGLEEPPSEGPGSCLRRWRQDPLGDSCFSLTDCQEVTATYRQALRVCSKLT
Described as above. To be noted: final concentration of NUAK2 50 nM; 20 µM CHKtide substrate; 33P-labeled ATP; 2 hours at room temperature; read-out: IC50 (nM) of Test Compounds against NUAK2. In kind it is biochemical. The procedure: as §1, §2, §3, §4, §5

As to “1-(5-chloro-2-((2-methoxy-4-(piperidin-4-yl)phenyl)amino)pyrimidin-4-yl)-N-(cyanomethyl)-1H-pyrrole-3-carboxamide [TDM-181157]”, the IC50 was determined as 194 nM on NUAK1 and 487 nM at NUAK2.

Turning to “2-(1-(piperidin-4-yl)-1H-pyrazol-4-yl)aminopyrimidin-4-yl)-1H-pyrazol-4-ylpropanesulfonamide [TDM-181135]”, the IC50 on NUAK1 amounted to 34 nM; at NUAK2, 265 nM.

With `CCS(=O)(=O)N1CCC(n2cc(-c3ccnc(Nc4cnn(C5CCNCC5)c4)n3)cn2)C1` (centres unmarked) [TDM-181134, 4-(1-(1-(Ethylsulfonyl)pyrrolidin-3-yl)-1H-pyrazol-4-yl)-N-(1-(piperidin-4-yl)-1H-pyrazol-4-yl)pyrimidin-2-amine], the figures for the IC50 on NUAK1 and at NUAK2 were 122 nM and 622 nM, respectively.

Consider `COc1cc(N2CCN(C)CC2)ccc1Nc1nccc(-n2cc(C(=O)NCC#N)cn2)n1` [TDM-181139, N-(Cyanomethyl)-1-(2-((2-methoxy-4-(4-methylpiperazin-1-yl)phenyl)amino)pyrimidin-4-yl)-1H-pyrazole-4-carboxamide], for which the IC50 at NUAK1 was found to be 474 nM; on NUAK2 it was 991 nM.

For the compound `N#CCNC(=O)c1cnn(-c2ccnc(Nc3cnn(C4CCNCC4)c3)n2)c1` [TDM-181140, N-(Cyanomethyl)-1-(2-((1-(piperidin-4-yl)-1H-pyrazol-4-yl)amino)pyrimidin-4-yl)-1H-pyrazole-4-carboxamide], the figures for the IC50 on NUAK1 and at NUAK2 were 305 nM and 210 nM, respectively.

Turning to `COc1cc(N2CCN(C)CC2)ccc1Nc1nccc(-n2ccc(C(=O)NCC#N)c2)n1` [TDM-181146, N-(Cyanomethyl)-1-(2-((2-methoxy-4-(4-methylpiperazin-1-yl)phenyl)amino)pyrimidin-4-yl)-1H-pyrrole-3-carboxamide], the 50% inhibitory concentration (IC50) on NUAK1 worked out at 260 nM; at NUAK2 it was 602 nM.

In the case of `CN1CCN(c2ccc(Nc3nccc(-n4ccc(C(=O)NCC#N)c4)n3)cc2)CC1` [TDM-181147, N-(Cyanomethyl)-1-(2-((4-(4-methylpiperazin-1-yl)phenyl)amino)pyrimidin-4-yl)-1H-pyrrole-3-carboxamide], the results for the concentration for half-maximal inhibition (IC50) on NUAK1 and on NUAK2 were 19 nM and 77 nM, respectively.

With `COc1cc(C2CCNCC2)ccc1Nc1nccc(-n2ccc(C(=O)NCC#N)c2)n1` [TDM-181152, N-(Cyanomethyl)-1-(2-((2-methoxy-4-(piperidin-4-yl)phenyl)amino)pyrimidin-4-yl)-1H-pyrrole-3-carboxamide], the IC50 at NUAK1 stood at 977 nM.

`N#CCNC(=O)c1ccn(-c2ccnc(Nc3cnn(C4CCNCC4)c3)n2)c1` [TDM-181153, N-(Cyanomethyl)-1-(2-((1-(piperidin-4-yl)-1H-pyrazol-4-yl)amino)pyrimidin-4-yl)-1H-pyrrole-3-carboxamide]: the IC50 came out at 84 nM at NUAK1 and 107 nM on NUAK2.

As to `N#CCNC(=O)c1ccn(-c2ccnc(Nc3ccc(C4CCNCC4)cc3)n2)c1` [TDM-181154, N-(cyanomethyl)-1-(2-((4-(piperidin-4-yl)phenyl)amino)pyrimidin-4-yl)-1H-pyrrole-3-carboxamide], the half-maximal inhibitory concentration (IC50) on NUAK1 amounted to 58 nM; on NUAK2, 239 nM.

In the case of `COc1cc(N2CCN(C)CC2)ccc1Nc1ncc(Cl)c(-n2ccc(C(=O)NCC#N)c2)n1` [TDM-181155, 1-(5-Chloro-2-((2-methoxy-4-(4-methylpiperazin-1-yl)phenyl)amino)pyrimidin-4-yl)-N-(cyanomethyl)-1H-pyrrole-3-carboxamide], the figures for the IC50 at NUAK1 and on NUAK2 were 43 nM and 69 nM, respectively.

Regarding `COc1cc(C2CCN(C)CC2)ccc1Nc1nccc(-n2ccc(C(=O)NCC#N)c2)n1` [TDM-181156, N-(cyanomethyl)-1-(2-((2-methoxy-4-(1-methylpiperidin-4-yl)phenyl)amino)pyrimidin-4-yl)-1H-pyrrole-3-carboxamide], the concentration for half-maximal inhibition (IC50) on NUAK1 was determined as 607 nM.

For `COc1cc(C2CCN(C)C2)ccc1Nc1nccc(-n2ccc(C(=O)NCC#N)c2)n1` (centres unmarked) [TDM-181158], the concentration for half-maximal inhibition (IC50) on NUAK1 was 394 nM.

Consider `O=C(Nc1cnn(-c2ccnc(Nc3cnn(C4CCNCC4)c3)n2)c1)[C@@H]1CC1(F)F` [TDM-181159, 2,2-Difluoro-N-(1-2-((1-(piperidin-4-yl)-1H-pyrazol-4-ylamino)pyrimidin-4-yl)-1H-pyrazol-4-yl)cyclopropane-1-carboxamide], for which the concentration for half-maximal inhibition (IC50) came to 337 nM on NUAK1 and 419 nM at NUAK2.

Turning to `CN1CCC(n2cc(Nc3nccc(-c4cnn(C(=O)C5CC5)c4)n3)cn2)CC1` [TDM-181169, Cyclopropyl(4-(2-((1-(1-methylpiperidin-4-yl)-1H-pyrazol-4-yl)amino)pyrimidin-4-yl)-1H-pyrazol-1-yl)methanone], the values for the IC50 at NUAK1 and at NUAK2 were 209 nM and 495 nM, respectively.

As to `CNC(=O)c1ccn(-c2nc(Nc3ccc(N4CCN(C)CC4)cc3)ncc2Cl)c1` [TDM-181170, 1-(5-Chloro-2-((4-(4-methylpiperazin-1-yl)phenyl)amino)pyrimidin-4-yl)-N-methyl-1H-pyrrole-3-carboxamide], the IC50 on NUAK1 was determined as 14 nM; on NUAK2 it was 78 nM.

In the case of `CN1CCN(c2ccc(Nc3ncc(Cl)c(-n4ccc(C(=O)NCC5CC5)c4)n3)cc2)CC1` [TDM-181171, 1-(5-Chloro-2-((4-(4-methylpiperazin-1-yl)phenyl)amino)pyrimidin-4-yl)-N-(cyclopropylmethyl)-1H-pyrrole-3-carboxamide], the IC50 stood at 9 nM on NUAK1 and 50 nM on NUAK2.

Take `CCCS(=O)(=O)Nc1cnn(-c2nc(Nc3cnn(C4CCNCC4)c3)ncc2Cl)c1` [TDM-181177, N-(1-(5-Chloro-2-(1-(piperidin-4-yl)-1H-pyrazol-4-ylamino)pyrimidin-4-yl)-1H-pyrazol-4-yl)propane-1-sulfonamide]: the results for the IC50 on NUAK1 and at NUAK2 were 9 nM and 72 nM, respectively.

Consider `CCCS(=O)(=O)Nc1cnn(-c2nc(Nc3cnc(C4CCNCC4)s3)ncc2Cl)c1` [TDM-181179, N-(1-(5-Chloro-2-((2-(piperidin-4-yl)thiazol-5-yl)amino)pyrimidin-4-yl)-1H-pyrazol-4-yl)propane-1-sulfonamide], for which the IC50 was found to be 6 nM at NUAK1 and 42 nM at NUAK2.
